In paper PMC8303187, “Anti-Inflammatory Effects of Compounds from Cudrania tricuspidata in HaCaT Human Keratinocytes” (International Journal of Molecular Sciences, 2021):
Like-named read-outs stand apart in the source and are kept apart here.

Legend:
[1] = system: IL-8 production in TNF-α + IFN-γ-treated HaCaT cells; assay: IL-8 production in TNF-α + IFN-γ-treated HaCaT cells (ELISA); type: cell-based, human; details: for IL-8 production: HaCaT cells pre-treated 3 h, then TNF-α + IFN-γ 24 h, result in words; for IC50: HaCaT cells pre-incubated with compound 3 h, then TNF-α + IFN-γ (20 ng/mL) 24 h, ELISA
Experimental: Next, the effect of the 16 compounds from C. tricuspidata on IL-8 production in HaCaT cells were determined. Briefly, HaCaT cells were pre-incubated with different concentrations of the 16 compounds for 3 h. Thereafter, the cells were subjected to TNF-α + IFN-γ stimulation for 24 h. […] Compound 2, with its flavanone skeletons, has been studied for its cyclooxygenase and tyrosinase inhibitory effects. In a previous study, compound 2 altered the anti-neuroinflammatory response in microglia. Compound 6, a prenylated flavanone, has been reported to have apoptotic effects on A375.S2 melanoma cells and to lead to the induction of apoptotic cell death in KM12, Caco-2, HT29, HCC2998, HCT116, and SW48 cell lines. […] This is the first report on the biological action of compounds 2, 6, 12, 13, 4, and 14 on the inhibitory effects of skin inflammatory factors in skin HaCaT cells. Therefore, further mechanism studies of these six compounds in HaCaT cells were conducted.
(§1) The cytokines and chemokines in IL-6, IL-8, CCL17 (TARC), and CCL5 (RANTES) HaCaT cells were detected using an enzyme-linked immunosorbent assay. The levels of these cytokines and chemokines were measured using commercial ELISA kits (BioLegend, San Diego, CA, USA), according to the manufacturer’s instructions.
Figure S3. Effects of the 16 compounds from C. tricuspidata on IL-8 (A, B, and C) production in TNF-α+IFN-γ-treated HaCaT cells. The cells were pre-treated with the indicated concentrations of the C. tricuspidata compounds for 3 h, and then stimulated with TNF-α+IFN-γ (20 ng/mL) for 24 h. […] levels were determined as described in the Materials and Methods section. Data are expressed as the mean ± standard deviation of three experiments. *p < 0.05, **p < 0.01, and ***p < 0.001 compared with TNF- […]
(1 picture or pasted object on this page, not shown here)

[2] = system: HaCaT cells; assay: Cell Counting Kit (CCK)-8 cell viability / cytotoxicity assay; details: CCK-8 assay, 24 h, concentration values that did not result in cytotoxicity
Experimental: (§6) The cytotoxicity of the 16 compounds was evaluated using a Cell Counting Kit (CCK)-8 assay on HaCaT cells.
(§7) To determine the viability of HaCaT cells, these were maintained at 2 × 10^4 cells/well, treated with the test compounds in the presence or absence of glutamate (5 mM), and cultured for 24 h. Subsequently, a CCK8 assay (Dojindo Laboratories, Kumamoto, Japan) was performed and the cells were incubated for 1 h. The absorbance was then measured at 450 nm.

[3] = system: IL-6 production in TNF-α + IFN-γ-treated HaCaT cells; assay: IL-6 production in TNF-α + IFN-γ-treated HaCaT cells (ELISA); type: cell-based, human; details: for IL-6 production: HaCaT cells pre-treated 3 h, then TNF-α + IFN-γ 24 h, result in words; for IC50: HaCaT cells pre-incubated with compound 3 h, then TNF-α + IFN-γ (20 ng/mL) 24 h, ELISA
From the text: The skin consists of two basic layers: the epidermis and dermis. The epidermis is mainly composed of keratinocytes. Pro-inflammatory cytokines are known to play an important role in the immune response in keratinocytes. Previous studies have reported the roles of TNF-α and IFN-γ in inducing NF-κB activation, which upregulates the production of IL-6 and IL-8 [25]. […] Accordingly, the effect of the 16 compounds from C. tricuspidata on IL-6 production in TNF-α + IFN-γ-treated HaCaT cells were determined. Briefly, HaCaT cells were pre-incubated with different concentrations of the 16 compounds for 3 h, and then stimulated with TNF-α + IFN-γ for 24 h.
as §1
Figure S2. Effects of the 16 compounds from C. tricuspidata on IL-6 production in TNF-α+IFN-γ-treated HaCaT cells (A, B, and C). Cells were pre-treated with the indicated concentrations of the 16 compounds from C. tricuspidata for 3 h and then stimulated with TNF-α+IFN-γ (20 ng/mL) for 24 h. IL-6 levels were determined as described in the Materials and Methods section. The results are presented as the mean ± standard deviation of three experiments. *p < 0.05, **p < 0.01, and ***p < 0.001 compared with TNF-

[4] = system: HaCaT cells
Experimental: as §6, §7

[5] = system: IκBα degradation in HaCaT cells; assay: Degradation of cytoplasmic IκBα in TNF-α + IFN-γ-treated HaCaT cells (Western blotting); type: cell-based, human; details: HaCaT cells pretreated 3 h, then TNF-α + IFN-γ (20 ng/mL) 10 min; Western blot
From the text: (§2) The activation of NF-κB by TNF-α and/or IFN-γ results from high levels of IκB phosphorylation and the degradation of IκB in keratinocytes. NF-κB–mediated inflammation is a significant component of innate immunity and seems to be a final common pathway for the aggravation of the inflammatory response to stimuli in immune diseases of the skin [56]. To determine the potential mechanisms of the inhibition of TNF-α + IFN-γ-induced pro-inflammatory enzyme and the mediator levels by the six compounds from C. tricuspidata, their effects on the phosphorylation and degradation of cytoplasmic IκBα and on p65 translocation to the nucleus were investigated. […] In addition, compounds 13, 4, and 14 inhibited the phosphorylation of IκBα (Figure 5C,D). When HaCaT cells were exposed to TNF-α + IFN-γ, NF-κB p65 translocated from the cytoplasm to the nucleus.
(§3) Figure 5 Effects of the six compounds from C. tricuspidata on the degradation of IκB-α (A,B), the phosphorylation of IκBα (C,D), and the translocation of NF-κB p65 to the nucleus (E,F) in HaCaT cells. Cells were pretreated with the six compounds from C. tricuspidata at the indicated concentrations for 3 h and stimulated with TNF-α + IFN-γ (20 ng/mL) for 10 min. IκBα, p-IκBα, and NF-κB p65 were analyzed using Western blotting, as described in the Materials and Methods section. Representative blots from four independent experiments are presented. The immunoblots were quantified using ImageJ software. The band intensity was normalized to that of actin or anti-proliferating cell nuclear antigen (PCNA). * p < 0.05, ** p < 0.01, *** p < 0.001 compared with TNF-α + IFN-γ only.
(§4) Cells were harvested and pelleted via centrifugation at 200× g for 3 min, washed with PBS, and lysed in 20 mM Tris-HCl buffer (pH 7.4) containing a protease inhibitor mixture (0.1 mM phenylmethanesulfonyl fluoride, 5 mg/mL aprotinin, 5 mg/mL pepstatin A, and 1 mg/mL chymostatin). The protein concentration was determined using a protein assay dye reagent concentrate (#5000006; Bio-Rad Laboratories, Hercules, CA, USA). A total of 30 micrograms of protein from each sample was resolved using 7.5% and 12% sodium dodecyl sulfate-polyacrylamide gel electrophoresis. Thereafter, the proteins were electrophoretically transferred onto Hybond enhanced chemiluminescence (ECL) nitrocellulose membranes (Bio-Rad Laboratories). The membranes were blocked with 5% skimmed milk, and sequentially incubated with the relevant primary antibody and horseradish peroxidase-conjugated secondary antibody, prior to ECL detection (Pierce Biotechnology, Rockford, IL, USA).
(§5) HaCaT cells were homogenized in PER-Mammalian Protein Extraction Buffer (1:20, w:v) (Pierce Biotechnology, Rockford, IL, USA) containing freshly added protease inhibitor cocktail I (EMD Biosciences, San Diego, CA, USA) and 1 mM phenylmethanesulfonyl fluoride. The cytosolic fractions were prepared using centrifugation at 16,000× g for 5 min at 4 °C, while the nuclear and cytoplasmic cell extracts were prepared using NE-PER nuclear and cytoplasmic extraction reagents, respectively (Pierce Biotechnology, Rockford, IL, USA).

[6] = system: NF-κB p65 translocation to the nucleus in HaCaT cells; assay: NF-κB p65 translocation to the nucleus in TNF-α + IFN-γ-treated HaCaT cells (Western blotting); type: cell-based, human; details: HaCaT cells pretreated 3 h, then TNF-α + IFN-γ (20 ng/mL) 10 min; Western blot
From the text: as §2, §3, §4, §5

Compound | IL-8 production [1] | IC50 ([1]; Homo sapiens) [µM] | Cytotoxicity [2] [µM] | IL-6 production [3] | IC50 ([3]; Homo sapiens) [µM] | Cytotoxicity [4] [µM] | degradation of IκBα in the cytoplasm [5] | NF-κB p65 translocation to the nucleus [6] | IC50 [1] [µM] | IC50 [3] [µM]
CC(C)=CCc1cc([C@H]2Oc3cc(O)c(CC=C(C)C)c(O)c3C(=O)C2O)c(O)cc1O (stereo partly drawn) [Compound 3, cudraflavanone D] | decreased | 4.2 ± 1.03 | >10 | significantly decreased | > 10 |  |  |  |  | 
C=CC(C)(C)c1c2c(c3oc4cc(O)c(O)cc4c(=O)c3c1O)C=CC(C)(C)O2 [Compound 16, cudratricusxanthone N] | decreased | > 2 | >2 |  | > 2 |  |  |  |  | 
cudraxanthone D [Compound 9] | decreased |  |  |  |  | >5 |  |  |  | 
C=CC(C)(C)c1c(O)cc(O)c2c(=O)c3c(CC=C(C)C)c(O)c(O)cc3oc12 [Compound 11, cudratricusxanthone A] |  | > 5 | >5 |  | > 5 |  |  |  |  | 
O=C1c2c(O)cc(O)cc2O[C@H](c2ccc(O)cc2)[C@H]1O [Compound 1, dihydrokaempferol] | decreased | > 80 | >80 | significantly decreased | > 80 |  |  |  |  | 
CC(C)=CCc1c(-c2ccc(O)cc2O)oc2c(CC=C(C)C)c(O)cc(O)c2c1=O [Compound 7, kuwanon C] | decreased | > 40 | >40 | significantly decreased | 25.8 ± 5.16 |  |  |  |  | 
C=CC(C)(C)c1c(O)c(CC=C(C)C)c2oc3cc(O)c(O)cc3c(=O)c2c1O [Compound 12, macluraxanthone B] | decreased | 7.88 ± 3.09 | >5 | significantly decreased | > 5 |  | inhibit | significantly inhibited |  | 
COc1cc(/C=C/C(=O)CC(=O)/C=C/c2ccc(O)c(OC)c2)ccc1O [curcumin, reference compound] |  | 10.3 ± 2.2 |  |  | 12 ± 3.13 |  |  |  |  | 
cudraxanthone M [Compound 8] | decreased |  | >10 |  |  |  |  |  | > 10 | > 10
C=CC(C)(C)c1c(O)cc2oc3c(CC=C(C)C)c(O)c(O)cc3c(=O)c2c1O [Compound 10, cudraxanthone L] | decreased | > 2 | >2 | significantly decreased | > 2 |  |  |  |  | 
C=CC(C)(C)c1c(OC)c(CC=C(C)C)c2oc3cc(O)c(O)cc3c(=O)c2c1O [Compound 15, cudracuspixanthone A] | decreased | 1.54 ± 0.53 | >2 | significantly decreased | > 2 |  |  |  |  | 
O=C1CC(c2ccc(O)cc2O)Oc2cc(O)cc(O)c21 (stereo not drawn) [Compound 2, steppogenin] | decreased | 62.2 ± 16.5 | >80 | significantly decreased | > 80 |  |  | significantly inhibited |  | 
CC(C)=CCc1c(O)cc2c(c1O)C(=O)C[C@@H](c1cc3c(cc1O)OC(C)(C)C=C3)O2 [Compound 5, cudraflavanone A] | decreased | > 40 | >40 |  | > 40 |  |  |  |  | 
